In US20250346585A1 (Alexion Pharmaceuticals, Inc., priority 2022, published 2025) one finds IC50 data, which are given here for 25 compounds.

SMILES strings stand for the structures.

Sequence of Human complement C1s enzyme (P09871 438-688 limits assumed): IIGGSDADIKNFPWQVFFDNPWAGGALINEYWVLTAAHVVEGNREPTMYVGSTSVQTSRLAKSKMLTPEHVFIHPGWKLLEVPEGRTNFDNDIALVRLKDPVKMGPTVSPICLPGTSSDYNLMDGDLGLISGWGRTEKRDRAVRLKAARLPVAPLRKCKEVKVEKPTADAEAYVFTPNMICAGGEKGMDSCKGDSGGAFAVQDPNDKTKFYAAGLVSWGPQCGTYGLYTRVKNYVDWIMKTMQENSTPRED
Sequence of Human complement C1s enzyme (P09871 16-437 partner limits assumed): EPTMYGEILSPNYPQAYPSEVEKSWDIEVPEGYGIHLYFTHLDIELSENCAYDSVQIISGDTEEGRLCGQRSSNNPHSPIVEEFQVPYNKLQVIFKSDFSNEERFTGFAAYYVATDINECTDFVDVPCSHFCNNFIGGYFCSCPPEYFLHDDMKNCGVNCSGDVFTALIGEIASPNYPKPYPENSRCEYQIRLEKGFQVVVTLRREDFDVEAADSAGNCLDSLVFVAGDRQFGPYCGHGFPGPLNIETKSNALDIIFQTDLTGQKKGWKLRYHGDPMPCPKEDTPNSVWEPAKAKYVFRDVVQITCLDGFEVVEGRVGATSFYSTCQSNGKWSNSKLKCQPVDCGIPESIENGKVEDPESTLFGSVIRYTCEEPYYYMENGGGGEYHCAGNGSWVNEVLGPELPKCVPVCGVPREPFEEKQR

The target in this test is Human complement C1s enzyme (Homo sapiens (Human), UniProt P09871). The test can be described thus: Human C1s enzyme assay. The format is biochemical. As to conditions: Human complement C1s enzyme 1.16 nM, substrate Z-L-Lys-SBzl 100 μM, assay of Example 3; read-out: IC50 (Stars). The procedure, abridged:
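IC50 derived by nonlinear regression of rate versus concentration, with rate taken from A405 kinetics (30 s intervals, 30 min) after adding 100 μM each Z-L-Lys-SBzl and DTNB. C1s from human serum, 1.16 nM, exposed to compound for 5 min at RT beforehand; buffer 50 mM Tris, 1 M NaCl, pH 7.5.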
One may read the IC50 as the concentration that inhibits the measured activity by half. Consider `CC(=O)Nc1csc(CNC(=O)[C@@H]2CC3(CN2C(=O)CNC(=O)c2ccc(Oc4ccc(F)cc4)cc2)OCCO3)c1` [Compound 288, (S)-N-((4-acetamidothiophen-2-yl)methyl)-7-((4-(4-fluorophenoxy)benzoyl)glycyl)-1,4-dioxa-7-azaspiro[4.4]nonane-8-carboxamide], for which the IC50 was more than 1000 nM.

On to `O=C(NCC(=O)N1CC2(C[C@H]1C(=O)NCc1cc(N3CCCC3)cs1)OCCO2)c1ccc(Oc2ccc(F)cc2)cc1` [Compound 289, (S)-7-((4-(4-fluorophenoxy)benzoyl)glycyl)-N-((4-(pyrrolidin-1-yl)thiophen-2-yl)methyl)-1,4-dioxa-7-azaspiro[4.4]nonane-8-carboxamide], for which the IC50 was in the range of 100 to 1000 nM.

Regarding `C[C@H](NC(=O)c1ccc(-c2ccc(F)cc2F)cc1)C(=O)N1CC2(C[C@H]1C(=O)NCc1cc(C(=N)N)cs1)OCCO2` [Compound 291, (S)—N-((4-carbamimidoylthiophen-2-yl)methyl)-7-((2′,4′-difluoro-[1,1′-biphenyl]-4-carbonyl)-L-alanyl)-1,4-dioxa-7-azaspiro[4.4]nonane-8-carboxamide], the IC50 was less than 100 nM.

Take `C[C@@H](NC(=O)[C@@H]1C[C@](F)(CO)CN1C(=O)CNC(=O)c1ccc2c(c1)-c1ccccc1C2(F)F)c1cc(C(=N)N)cs1` [Compound 292, (2S,4R)—N—((R)-1-(4-carbamimidoylthiophen-2-yl)ethyl)-1-((9,9-difluoro-9H-fluorene-3-carbonyl)glycyl)-4-fluoro-4-(hydroxymethyl)pyrrolidine-2-carboxamide]: the IC50 is less than 100 nM.

With `C[C@@]12C[C@@H]1N(C(=O)CNC(=O)c1ccc(Oc3ccccc3)cc1)[C@H](C(=O)NCc1cc3c(s1)C(N)=NCC3)C2` [Compound 293, (1S,3S,5S)—N-((7-amino-4,5-dihydrothieno[2,3-c]pyridin-2-yl)methyl)-5-methyl-2-((4-phenoxybenzoyl)glycyl)-2-azabicyclo[3.1.0]hexane-3-carboxamide], the IC50 lay in the range of 100 to 1000 nM.

Regarding `C[C@@H](NC(=O)[C@@H]1CC2(CN1C(=O)CNC(=O)c1ccc3c(c1)Oc1ccccc1N3)OCCO2)c1cc(C(=N)N)cs1` [Compound 294, N-(2-((S)-8-(((R)-1-(4-carbamimidoylthiophen-2-yl)ethyl)carbamoyl)-1,4-dioxa-7-azaspiro[4.4]nonan-7-yl)-2-oxoethyl)-10H-phenoxazine-3-carboxamide], the IC50 is less than 100 nM.

As for `C[C@H](NC(=O)c1ccc(-c2ccc(F)cc2)cc1)C(=O)N1CC2(C[C@H]1C(=O)NCc1cc(C(=N)N)cs1)OCCO2` [Compound 296, (S)—N-((4-carbamimidoylthiophen-2-yl)methyl)-7-((4′-fluoro-[1,1′-biphenyl]-4-carbonyl)-L-alanyl)-1,4-dioxa-7-azaspiro[4.4]nonane-8-carboxamide], the IC50 was less than 100 nM.

For `N=C(N)c1csc(CNC(=O)[C@@H]2CC3(CN2C(=O)CNC(=O)c2ccc(-c4ccccc4)o2)OCCO3)c1` [Compound 297, (S)—N-((4-carbamimidoylthiophen-2-yl)methyl)-7-((5-phenylfuran-2-carbonyl)glycyl)-1,4-dioxa-7-azaspiro[4.4]nonane-8-carboxamide], the IC50 is less than 100 nM.

On to `N=C(N)c1csc(CNC(=O)[C@@H]2CC3(CN2C(=O)CNC(=O)c2ccc(-c4ccc(F)cc4F)o2)OCCO3)c1` [Compound 298, (S)—N-((4-carbamimidoylthiophen-2-yl)methyl)-7-((5-(2,4-difluorophenyl)furan-2-carbonyl)glycyl)-1,4-dioxa-7-azaspiro[4.4]nonane-8-carboxamide], for which the IC50 is less than 100 nM.

On to `N=C(N)c1csc(CNC(=O)[C@@H]2CC3(CN2C(=O)CNC(=O)c2ccc(-c4ccc(F)cc4)o2)OCCO3)c1` [Compound 299, (S)—N-((4-carbamimidoylthiophen-2-yl)methyl)-7-((5-(4-fluorophenyl)furan-2-carbonyl)glycyl)-1,4-dioxa-7-azaspiro[4.4]nonane-8-carboxamide], for which the IC50 was less than 100 nM.

With `C[C@H](NC(=O)c1ccc(-c2ccccc2)cc1)C(=O)N1CC2(C[C@H]1C(=O)NCc1cc(C(=N)N)cs1)OCCO2` [Compound 300, (S)-7-(([1,1′-biphenyl]-4-carbonyl)-L-alanyl)-N-((4-carbamimidoylthiophen-2-yl)methyl)-1,4-dioxa-7-azaspiro[4.4]nonane-8-carboxamide], the IC50 is less than 100 nM.

Regarding `C[C@@H](NC(=O)c1ccc(-c2ccc(F)cc2F)cc1)C(=O)N1CC2(C[C@H]1C(=O)NCc1cc(C(=N)N)cs1)OCCO2` [Compound 301, (S)—N-((4-carbamimidoylthiophen-2-yl)methyl)-7-((2′,4′-difluoro-[1,1′-biphenyl]-4-carbonyl)-D-alanyl)-1,4-dioxa-7-azaspiro[4.4]nonane-8-carboxamide], the IC50 was less than 100 nM.

With `C[C@@H](NC(=O)c1ccc(-c2ccccc2)cc1)C(=O)N1CC2(C[C@H]1C(=O)NCc1cc(C(=N)N)cs1)OCCO2` [Compound 302, (S)-7-(([1,1′-biphenyl]-4-carbonyl)-D-alanyl)-N-((4-carbamimidoylthiophen-2-yl)methyl)-1,4-dioxa-7-azaspiro[4.4]nonane-8-carboxamide], the IC50 was less than 100 nM.

With `C[C@@H](NC(=O)[C@@H]1C[C@]2(CN)C[C@@H]2N1C(=O)CNC(=O)c1ccc2c(c1)-c1ccccc1C2(F)F)c1cc(C(=N)N)cs1` [Compound 303, (1S,3S,5S)-5-(aminomethyl)-N—((R)-1-(4-carbamimidoylthiophen-2-yl)ethyl)-2-((9,9-difluoro-9H-fluorene-3-carbonyl)glycyl)-2-azabicyclo[3.1.0]hexane-3-carboxamide], the IC50 was less than 100 nM.

As for `C[C@@H](NC(=O)[C@@H]1C[C@]2(CN(C)C)C[C@@H]2N1C(=O)CNC(=O)c1ccc2c(c1)-c1ccccc1C2(F)F)c1cc(C(=N)N)cs1` [Compound 304, (1S,3S,5S)—N—((R)-1-(4-carbamimidoylthiophen-2-yl)ethyl)-2-((9,9-difluoro-9H-fluorene-3-carbonyl)glycyl)-5-((dimethylamino)methyl)-2-azabicyclo[3.1.0]hexane-3-carboxamide], the IC50 was less than 100 nM.

As for `C[C@@H](NC(=O)[C@@H]1C[C@@H](C(F)(F)F)CN1C(=O)CNC(=O)c1ccc(Oc2ccc(F)cc2)cc1)c1cc(C(=N)N)cs1` [Compound 307, (2S,4R)—N—((R)-1-(4-carbamimidoylthiophen-2-yl)ethyl)-1-((4-(4-fluorophenoxy)benzoyl)glycyl)-4-(trifluoromethyl)pyrrolidine-2-carboxamide], the IC50 was less than 100 nM.

Take `O=C(NCC(=O)N1CC2(C[C@H]1C(=O)NCc1cc(NCCO)cs1)OCCO2)c1ccc(Oc2ccc(F)cc2)cc1` [Compound 308, (S)-7-((4-(4-fluorophenoxy)benzoyl)glycyl)-N-((4-((2-hydroxyethyl)amino)thiophen-2-yl)methyl)-1,4-dioxa-7-azaspiro[4.4]nonane-8-carboxamide]: the IC50 was more than 1000 nM.

For `C=CC(=O)Nc1csc(CNC(=O)[C@@H]2CC3(CN2C(=O)CNC(=O)c2ccc(Oc4ccc(F)cc4)cc2)OCCO3)c1` [Compound 309, (S)-N-((4-acrylamidothiophen-2-yl)methyl)-7-((4-(4-fluorophenoxy)benzoyl)glycyl)-1,4-dioxa-7-azaspiro[4.4]nonane-8-carboxamide], the IC50 is more than 1000 nM.

Consider `NC(=O)CCNc1csc(CNC(=O)[C@@H]2CC3(CN2C(=O)CNC(=O)c2ccc(Oc4ccc(F)cc4)cc2)OCCO3)c1` [Compound 310, (S)-N-((4-((3-amino-3-oxopropyl)amino)thiophen-2-yl)methyl)-7-((4-(4-fluorophenoxy)benzoyl)glycyl)-1,4-dioxa-7-azaspiro[4.4]nonane-8-carboxamide], for which the IC50 was more than 1000 nM.

`NCCC(=O)Nc1csc(CNC(=O)[C@@H]2CC3(CN2C(=O)CNC(=O)c2ccc(Oc4ccc(F)cc4)cc2)OCCO3)c1` [Compound 311, (S)-N-((4-(3-aminopropanamido)thiophen-2-yl)methyl)-7-((4-(4-fluorophenoxy)benzoyl)glycyl)-1,4-dioxa-7-azaspiro[4.4]nonane-8-carboxamide]: the IC50 was more than 1000 nM.

Regarding `C[C@@H](NC(=O)[C@@H]1CC2(CN1C(=O)CNC(=O)c1ccc3c(c1)Sc1ccccc1O3)OCCO2)c1cc(C(=N)N)cs1` [Compound 312, (S)—N—((R)-1-(4-carbamimidoylthiophen-2-yl)ethyl)-7-((phenoxathiine-2-carbonyl)glycyl)-1,4-dioxa-7-azaspiro[4.4]nonane-8-carboxamide], the IC50 was less than 100 nM.

`C[C@@H](NC(=O)[C@@H]1C[C@]2(COCCN)C[C@@H]2N1C(=O)CNC(=O)c1ccc2c(c1)-c1ccccc1C2(F)F)c1cc(C(=N)N)cs1` [Compound 313, (1S,3S,5R)-5-((2-aminoethoxy)methyl)-N—((R)-1-(4-carbamimidoylthiophen-2-yl)ethyl)-2-((9,9-difluoro-9H-fluorene-3-carbonyl)glycyl)-2-azabicyclo[3.1.0]hexane-3-carboxamide]: the IC50 was less than 100 nM.

As for `N=C(N)c1csc(C(CN)NC(=O)[C@@H]2C[C@@H](OC(F)F)CN2C(=O)CNC(=O)c2ccc(Oc3ccccc3)cc2)c1` (stereo partly shown) [Compound 314], the IC50 is more than 1000 nM.

For `NCC(=O)Nc1csc(CNC(=O)[C@@H]2CC3(CN2C(=O)CNC(=O)c2ccc(Oc4ccc(F)cc4)cc2)OCCO3)c1` [Compound 316, (S)-N-((4-(2-aminoacetamido)thiophen-2-yl)methyl)-7-((4-(4-fluorophenoxy)benzoyl)glycyl)-1,4-dioxa-7-azaspiro[4.4]nonane-8-carboxamide], the IC50 lay in the range of 100 to 1000 nM.

For the compound `NC(=O)Nc1csc(CNC(=O)[C@@H]2CC3(CN2C(=O)CNC(=O)c2ccc(Oc4ccc(F)cc4)cc2)OCCO3)c1` [Compound 317, (S)-7-((4-(4-fluorophenoxy)benzoyl)glycyl)-N-((4-ureidothiophen-2-yl)methyl)-1,4-dioxa-7-azaspiro[4.4]nonane-8-carboxamide], the IC50 is more than 1000 nM.
